Values quoted from earlier work, collected in patent US20260193295A1, “CILAGICIN COMPOUNDS AND METHODS OF USE THEREOF” (priority 2022, published 2026).
Values after ≈ are worked out from the molar mass of the structure shown. Like-named read-outs stand apart in the source and are kept apart here.

Tested on: vancomycin-resistant Enterococci clinical isolates
Settings: cited from earlier work
[1] = Enterococci clinical isolate code 781
[2] = Enterococci clinical isolate code 782
[3] = Enterococci clinical isolate code 783
[4] = Enterococci clinical isolate code 784
[5] = Enterococci clinical isolate code 785
[6] = Enterococci clinical isolate code 786
[7] = Enterococci clinical isolate code 787
[8] = Enterococci clinical isolate code 788
[9] = Enterococci clinical isolate code 789
[10] = Enterococci clinical isolate code 790
[11] = Enterococci clinical isolate code 791
[12] = Enterococci clinical isolate code 792
[13] = Enterococci clinical isolate code 793
[14] = Enterococci clinical isolate code 794
[15] = Enterococci clinical isolate code 795
[16] = Enterococci clinical isolate code 796
[17] = Enterococci clinical isolate code 797
[18] = Enterococci clinical isolate code 798
[19] = Enterococci clinical isolate code 799
[20] = Enterococci clinical isolate code 800
[21] = Enterococci clinical isolate code 801
[22] = Enterococci clinical isolate code 802
[23] = Enterococci clinical isolate code 803
[24] = Enterococci clinical isolate code 804
[25] = Enterococci clinical isolate code 805
[26] = Enterococci clinical isolate code 806
[27] = Enterococci clinical isolate code 807
[28] = Enterococci clinical isolate code 808
[29] = Enterococci clinical isolate code 809
[30] = Enterococci clinical isolate code 810

CC1(C)S[C@@H]2[C@H](NC(=O)[C@H](N)c3ccccc3)C(=O)N2[C@H]1C(=O)O [Ampicillin]
MIC [1]: 1 µg/mL (≈ 2.86 µM) | MIC [2]: 1 µg/mL (≈ 2.86 µM) | MIC [3]: 64 µg/mL (≈ 183 µM) | MIC [4]: 1 µg/mL (≈ 2.86 µM) | MIC [5]: 2 µg/mL (≈ 5.72 µM) | MIC [6]: 0.5 µg/mL (≈ 1.43 µM) | MIC [7]: 8 µg/mL (≈ 22.9 µM) | MIC [8]: 1 µg/mL (≈ 2.86 µM) | MIC [9]: 0.12 µg/mL (≈ 0.343 µM) | MIC [10]: 64 µg/mL (≈ 183 µM) | MIC [11]: 1 µg/mL (≈ 2.86 µM) | MIC [12]: 64 µg/mL (≈ 183 µM) | MIC [13]: 1 µg/mL (≈ 2.86 µM) | MIC [14]: 64 µg/mL (≈ 183 µM) | MIC [15]: 2 µg/mL (≈ 5.72 µM) | MIC [16]: 2 µg/mL (≈ 5.72 µM) | MIC [17]: 1 µg/mL (≈ 2.86 µM) | MIC [18]: 1 µg/mL (≈ 2.86 µM) | MIC [19]: 1 µg/mL (≈ 2.86 µM) | MIC [20]: 1 µg/mL (≈ 2.86 µM) | MIC [21]: 1 µg/mL (≈ 2.86 µM) | MIC [22]: 64 µg/mL (≈ 183 µM) | MIC [23]: 128 µg/mL (≈ 366 µM) | MIC [24]: 1 µg/mL (≈ 2.86 µM) | MIC [25]: 1 µg/mL (≈ 2.86 µM) | MIC [26]: 4 µg/mL (≈ 11.4 µM) | MIC [27]: 32 µg/mL (≈ 91.6 µM) | MIC [28]: 2 µg/mL (≈ 5.72 µM) | MIC [29]: 0.5 µg/mL (≈ 1.43 µM) | MIC [30]: 1 µg/mL (≈ 2.86 µM)

O=C(N[C@H](CO)[C@H](O)c1ccc([N+](=O)[O-])cc1)C(Cl)Cl [Chloramphenicol]
MIC [1]: 8 µg/mL (≈ 24.8 µM) | MIC [2]: >32 µg/mL | MIC [3]: 16 µg/mL (≈ 49.5 µM) | MIC [4]: 4 µg/mL (≈ 12.4 µM) | MIC [5]: >32 µg/mL | MIC [6]: 16 µg/mL (≈ 49.5 µM) | MIC [7]: 32 µg/mL (≈ 99 µM) | MIC [8]: 8 µg/mL (≈ 24.8 µM) | MIC [9]: 16 µg/mL (≈ 49.5 µM) | MIC [10]: 8 µg/mL (≈ 24.8 µM) | MIC [11]: 8 µg/mL (≈ 24.8 µM) | MIC [12]: 4 µg/mL (≈ 12.4 µM) | MIC [13]: 8 µg/mL (≈ 24.8 µM) | MIC [14]: 8 µg/mL (≈ 24.8 µM) | MIC [15]: 32 µg/mL (≈ 99 µM) | MIC [16]: 8 µg/mL (≈ 24.8 µM) | MIC [17]: 8 µg/mL (≈ 24.8 µM) | MIC [18]: 16 µg/mL (≈ 49.5 µM) | MIC [19]: >32 µg/mL | MIC [20]: 16 µg/mL (≈ 49.5 µM) | MIC [21]: 8 µg/mL (≈ 24.8 µM) | MIC [22]: 8 µg/mL (≈ 24.8 µM) | MIC [23]: 8 µg/mL (≈ 24.8 µM) | MIC [24]: >32 µg/mL | MIC [25]: 8 µg/mL (≈ 24.8 µM) | MIC [26]: 8 µg/mL (≈ 24.8 µM) | MIC [27]: 32 µg/mL (≈ 99 µM) | MIC [28]: 8 µg/mL (≈ 24.8 µM) | MIC [29]: 8 µg/mL (≈ 24.8 µM) | MIC [30]: 8 µg/mL (≈ 24.8 µM)

CCCCCCCCCC(=O)N[C@@H](Cc1c[nH]c2ccccc12)C(=O)N[C@H](CC(N)=O)C(=O)N[C@@H](CC(=O)O)C(=O)N[C@@H]1C(=O)NCC(=O)N[C@@H](CCCN)C(=O)N[C@@H](CC(=O)O)C(=O)N[C@H](C)C(=O)N[C@@H](CC(=O)O)C(=O)NCC(=O)N[C@H](CO)C(=O)N[C@@H]([C@H](C)CC(=O)O)C(=O)N[C@@H](CC(=O)c2ccccc2N)C(=O)O[C@@H]1C [Daptomycin]
MIC [1]: 4 µg/mL (≈ 2.47 µM) | MIC [2]: 2 µg/mL (≈ 1.23 µM) | MIC [3]: 4 µg/mL (≈ 2.47 µM) | MIC [4]: 4 µg/mL (≈ 2.47 µM) | MIC [5]: 2 µg/mL (≈ 1.23 µM) | MIC [6]: 0.5 µg/mL (≈ 0.309 µM) | MIC [7]: 8 µg/mL (≈ 4.94 µM) | MIC [8]: 1 µg/mL (≈ 0.617 µM) | MIC [9]: 8 µg/mL (≈ 4.94 µM) | MIC [10]: 4 µg/mL (≈ 2.47 µM) | MIC [11]: 1 µg/mL (≈ 0.617 µM) | MIC [12]: 4 µg/mL (≈ 2.47 µM) | MIC [13]: 4 µg/mL (≈ 2.47 µM) | MIC [14]: 4 µg/mL (≈ 2.47 µM) | MIC [15]: 1 µg/mL (≈ 0.617 µM) | MIC [16]: 2 µg/mL (≈ 1.23 µM) | MIC [17]: 1 µg/mL (≈ 0.617 µM) | MIC [18]: 1 µg/mL (≈ 0.617 µM) | MIC [19]: 2 µg/mL (≈ 1.23 µM) | MIC [20]: 2 µg/mL (≈ 1.23 µM) | MIC [21]: 2 µg/mL (≈ 1.23 µM) | MIC [22]: 4 µg/mL (≈ 2.47 µM) | MIC [23]: 4 µg/mL (≈ 2.47 µM) | MIC [24]: 1 µg/mL (≈ 0.617 µM) | MIC [25]: 2 µg/mL (≈ 1.23 µM) | MIC [26]: 4 µg/mL (≈ 2.47 µM) | MIC [27]: 4 µg/mL (≈ 2.47 µM) | MIC [28]: 4 µg/mL (≈ 2.47 µM) | MIC [29]: 4 µg/mL (≈ 2.47 µM) | MIC [30]: 4 µg/mL (≈ 2.47 µM)

CC(=O)NC[C@H]1CN(c2ccc(N3CCOCC3)c(F)c2)C(=O)O1 [Linezolid]
MIC [1]: 2 µg/mL (≈ 5.93 µM) | MIC [2]: 2 µg/mL (≈ 5.93 µM) | MIC [3]: 2 µg/mL (≈ 5.93 µM) | MIC [4]: 1 µg/mL (≈ 2.96 µM) | MIC [5]: 2 µg/mL (≈ 5.93 µM) | MIC [6]: 2 µg/mL (≈ 5.93 µM) | MIC [7]: 2 µg/mL (≈ 5.93 µM) | MIC [8]: 4 µg/mL (≈ 11.9 µM) | MIC [9]: 2 µg/mL (≈ 5.93 µM) | MIC [10]: 2 µg/mL (≈ 5.93 µM) | MIC [11]: 2 µg/mL (≈ 5.93 µM) | MIC [12]: 1 µg/mL (≈ 2.96 µM) | MIC [13]: 2 µg/mL (≈ 5.93 µM) | MIC [14]: 2 µg/mL (≈ 5.93 µM) | MIC [15]: 1 µg/mL (≈ 2.96 µM) | MIC [16]: 2 µg/mL (≈ 5.93 µM) | MIC [17]: 2 µg/mL (≈ 5.93 µM) | MIC [18]: 4 µg/mL (≈ 11.9 µM) | MIC [19]: 2 µg/mL (≈ 5.93 µM) | MIC [20]: 2 µg/mL (≈ 5.93 µM) | MIC [21]: 2 µg/mL (≈ 5.93 µM) | MIC [22]: 2 µg/mL (≈ 5.93 µM) | MIC [23]: 4 µg/mL (≈ 11.9 µM) | MIC [24]: 2 µg/mL (≈ 5.93 µM) | MIC [25]: 2 µg/mL (≈ 5.93 µM) | MIC [26]: 2 µg/mL (≈ 5.93 µM) | MIC [27]: 2 µg/mL (≈ 5.93 µM) | MIC [28]: 4 µg/mL (≈ 11.9 µM) | MIC [29]: 2 µg/mL (≈ 5.93 µM) | MIC [30]: 2 µg/mL (≈ 5.93 µM)
